From ChEMBL document CHEMBL5625212, “De novo designed self-assembling helicomimetic lipooligoureas with antibacterial activity” (Eur J Med Chem, 2023)
In brackets after ≈: the same amount, converted by molar mass.

Assays:
Enterococcus faecalis = assay: Antibacterial activity against Enterococcus faecalis ATCC 14506 assessed as reduction in bacterial growth measured after 24 hrs by spectrophotometer based analysis; assay type: functional
Staphylococcus aureus [1] = assay: Antibacterial activity against methicillin resistant Staphylococcus aureus 4811/13 assessed as reduction in bacterial growth measured after 24 hrs by spectrophotometer based analysis; assay type: functional
Staphylococcus aureus [2] = assay: Antibacterial activity against methicillin resistant Staphylococcus aureus 401/5 assessed as reduction in bacterial growth measured after 24 hrs by spectrophotometer based analysis; assay type: functional
[3] = system: Staphylococcus epidermidis; assay: Antibacterial activity against Staphylococcus epidermidis ATCC 12228 assessed as reduction in bacterial growth measured after 24 hrs by spectrophotometer based analysis; assay type: functional
Staphylococcus aureus [4] = assay: Antibacterial activity against Staphylococcus aureus ATCC 29213 assessed as reduction in bacterial growth measured after 24 hrs by spectrophotometer based analysis; assay type: functional
Staphylococcus aureus [5] = assay: Antibacterial activity against methicillin resistant Staphylococcus aureus 5288/13 assessed as reduction in bacterial growth measured after 24 hrs by spectrophotometer based analysis; assay type: functional
[6] = Aggregation property of compound in PBS assessed as critical aggregation concentration; assay type: physicochemical; conditions: buffer
[7] = Proteolytic stability of the compound in human serum assessed as drug degradation measured after 96 hrs by RP-HPLC analysis; assay type: ADME, cell-free; conditions: read-out: Drug degradation
[8] = Proteolytic stability of the compound in human serum assessed as drug degradation measured after 24 hrs by RP-HPLC analysis; assay type: ADME, cell-free; conditions: read-out: Drug degradation
Pseudomonas aeruginosa = assay: Antibacterial activity against Pseudomonas aeruginosa PA01 PCM 499 assessed as reduction in bacterial growth measured after 24 hrs by spectrophotometer based analysis; assay type: functional
Escherichia coli = assay: Antibacterial activity against Escherichia coli ST2-8624 O157 H7 assessed as reduction in bacterial growth measured after 24 hrs by spectrophotometer based analysis; assay type: functional
Klebsiella pneumoniae = assay: Antibacterial activity against Klebsiella pneumoniae PCM 1 assessed as reduction in bacterial growth measured after 24 hrs by spectrophotometer based analysis; assay type: functional
Yersinia enterocolitica = assay: Antibacterial activity against Yersinia enterocolitica PCM 2081 assessed as reduction in bacterial growth measured after 24 hrs by spectrophotometer based analysis; assay type: functional
Salmonella typhimurium = assay: Antibacterial activity against Salmonella enterica subsp. enterica serovar Typhimurium TT622 assessed as reduction in bacterial growth measured after 24 hrs by spectrophotometer based analysis; assay type: functional
[9] = Proteolytic stability of the compound in human serum assessed as drug degradation measured within 4 hrs by RP-HPLC analysis; assay type: ADME, cell-free

Row | SMILES | MIC (Enterococcus faecalis) | MIC (Staphylococcus aureus [1]) | MIC (Staphylococcus aureus [2]) | MIC [3] | MIC (Staphylococcus aureus [4]) | MIC (Staphylococcus aureus [5]) | CAC [6] | metabolised at 96 h [7] | metabolised at 24 h [8] | MIC (Pseudomonas aeruginosa) | MIC (Escherichia coli) | MIC (Klebsiella pneumoniae) | MIC (Yersinia enterocolitica) | MIC (Salmonella typhimurium) | Stability [9]
1 | CCCCCCCCCC(=O)N[C@@H](Cc1c[nH]c2ccccc12)C(=O)N[C@H](CC(N)=O)C(=O)N[C@@H](CC(=O)O)C(=O)N[C@@H]1C(=O)NCC(=O)N[C@@H](CCCN)C(=O)N[C@@H](CC(=O)O)C(=O)N[C@H](C)C(=O)N[C@@H](CC(=O)O)C(=O)NCC(=O)N[C@H](CO)C(=O)N[C@@H]([C@H](C)CC(=O)O)C(=O)N[C@@H](CC(=O)c2ccccc2N)C(=O)O[C@@H]1C | 3.5 mg/L (≈ 2.16 µM) | 2 mg/L (≈ 1.23 µM) | 1.5 mg/L (≈ 0.926 µM) | 1 mg/L (≈ 0.617 µM) | 2 mg/L (≈ 1.23 µM) | 2 mg/L (≈ 1.23 µM) | – | – | – | – | – | – | – | – | –
2 | CCCCCCCCCC(=O)N[C@H](CNC(=O)N[C@@H](CCCCN)CNC(=O)N[C@@H](CCCCN)CN[C@H](CNC(=O)N[C@@H](CCCCN)CNC(N)=O)CC(C)C)Cc1ccccc1 | – | 30 mg/L (≈ 32.7 µM) | 30 mg/L (≈ 32.7 µM) | 30 mg/L (≈ 32.7 µM) | 30 mg/L (≈ 32.7 µM) | 40 mg/L (≈ 43.6 µM) | 79 µM | 15% | – | – | – | – | – | – | –
3 | CCCCCCCCCC(=O)N[C@H](CNC(=O)N[C@@H](CCN)CNC(=O)N[C@H](CN[C@H](CNC(=O)N[C@@H](CCN)CNC(N)=O)CC(C)C)CC(C)C)Cc1ccccc1 | 5 mg/L (≈ 5.9 µM) | 5 mg/L (≈ 5.9 µM) | 5 mg/L (≈ 5.9 µM) | 5 mg/L (≈ 5.9 µM) | 5 mg/L (≈ 5.9 µM) | 5 mg/L (≈ 5.9 µM) | 40 µM | 8% | 4% | 10 mg/L (≈ 11.8 µM) | 10 mg/L (≈ 11.8 µM) | 20 mg/L (≈ 23.6 µM) | 10 mg/L (≈ 11.8 µM) | 20 mg/L (≈ 23.6 µM) | –
4 | CCCCCCCCCC(=O)N[C@H](CNC(=O)N[C@@H](CCN)CNC(=O)N[C@@H](CCN)CN[C@H](CNC(=O)N[C@@H](CCN)CNC(N)=O)CC(C)C)Cc1ccccc1 | 40 mg/L (≈ 48 µM) | 30 mg/L (≈ 36 µM) | 20 mg/L (≈ 24 µM) | 20 mg/L (≈ 24 µM) | 20 mg/L (≈ 24 µM) | 30 mg/L (≈ 36 µM) | 87 µM | 8% | – | – | – | – | – | – | –
5 | CCCCCCCCCC(=O)N[C@H](CNC(=O)N[C@@H](CCN)CNC(=O)N[C@@H](CCN)CN[C@H](CNC(=O)N[C@H](CNC(N)=O)CC(C)C)CC(C)C)Cc1ccccc1 | 20 mg/L (≈ 23.6 µM) | 10 mg/L (≈ 11.8 µM) | 10 mg/L (≈ 11.8 µM) | 10 mg/L (≈ 11.8 µM) | 10 mg/L (≈ 11.8 µM) | 10 mg/L (≈ 11.8 µM) | 56 µM | 8% | – | 30 mg/L (≈ 35.4 µM) | 30 mg/L (≈ 35.4 µM) | 30 mg/L (≈ 35.4 µM) | 30 mg/L (≈ 35.4 µM) | 30 mg/L (≈ 35.4 µM) | –
6 | NC(=O)[C@H](Cc1ccccc1)NC(=O)[C@H](Cc1ccccc1)NC(=O)[C@@H]1CCCN1C(=O)[C@@H](N)Cc1ccc(O)cc1 [ENDOMORPHIN 2] | – | – | – | – | – | – | – | – | – | – | – | – | – | – | Unstable
